Test results from patent publication US20220242853A1, “MODIFIED CYANINE DYES AND CONJUGATES THEREOF” (BRACCO IMAGING S.P.A., priority 2019, published 2022).

Columns and labels:
[1] = target: T1, human serum albumin (HSA) (Homo sapiens, UniProt P02768); experiment: Binding affinity to human serum albumin (absorbance peak shift or ultrafiltration method); conditions: phosphate buffer, 25° C., one of the two methods; read-out: HSA affinity (KA) (converted)
T1 construct: purchased Sigma Aldrich A9511
T1 sequence (P02768 25-609): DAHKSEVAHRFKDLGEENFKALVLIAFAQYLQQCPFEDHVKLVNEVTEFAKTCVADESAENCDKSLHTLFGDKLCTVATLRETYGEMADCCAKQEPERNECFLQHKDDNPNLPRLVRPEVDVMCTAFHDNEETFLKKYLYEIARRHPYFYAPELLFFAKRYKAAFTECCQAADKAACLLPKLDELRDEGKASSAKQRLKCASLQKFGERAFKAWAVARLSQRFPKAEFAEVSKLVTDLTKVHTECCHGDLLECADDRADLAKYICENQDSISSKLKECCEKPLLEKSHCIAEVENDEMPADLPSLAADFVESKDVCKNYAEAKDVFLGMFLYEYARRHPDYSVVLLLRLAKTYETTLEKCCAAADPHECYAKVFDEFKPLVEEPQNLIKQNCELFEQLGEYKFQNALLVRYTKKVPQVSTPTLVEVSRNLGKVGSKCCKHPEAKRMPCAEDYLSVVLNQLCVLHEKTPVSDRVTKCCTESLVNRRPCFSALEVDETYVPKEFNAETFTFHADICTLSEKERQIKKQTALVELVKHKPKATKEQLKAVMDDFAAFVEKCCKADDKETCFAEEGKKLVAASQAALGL
Experimental: Binding affinity to human serum albumin (HSA; Sigma Aldrich, A9511) was measured using two methods, according to the level of binding affinity of the compounds.
The first method, optimal for compounds which strongly interact with HSA, is based on the analysis of the absorbance spectrum peak shift after the incubation of the dye in solutions containing HSA. Briefly, the samples were incubated at a fixed concentration (1 μM) with HSA dilutions (1×10^−6-4×10^−4M), in phosphate buffer for 5 min in the spectrophotometer at 25° C. before measurements. The measure was performed at the maximum absorbance wavelength of the shifted peak.
The second method, optimal for compound with low affinity for HSA, is based on measuring the variation of the absorbance of solutions containing the dye and various concentrations of HSA after ultrafiltration. Briefly, each compound was incubated at a fixed concentration (2 μM) with HSA dilutions (1×10^−6-4×10^−4 M), in phosphate buffer. The samples were centrifuged (10,000 g for 30 min at 25° C.) in a Microcon device (10 kDa MWCO, Amicon Ultra-0.5 Centrifugal Filter Unit with Ultracel-10 membrane, Millipore) and the absorbance measurements of the filtrates were obtained with the spectrophotometer at the maximum absorbance wavelength of the fluorophore.
For both methods, the affinity constant (KA, M^−1) was calculated by fitting the raw data with the following formula:
wherein ΔA/b=Absorbance measured (b=1 cm) KRL=KA calculated by regression analysis (curve fitting) Δε·Rt calculated by regression analysis (curve fitting) [L]=Albumin concentration
In the first method, ΔA/b corresponds to the absorbance measured for each sample, whereas in the second method ΔA/b is obtained subtracting the absorbance of the control sample (dye without HSA) to the absorbance of each other sample.
However, the measurement of the affinity constant is more precise when the suitable method is used as a function of the affinity level of the compound.

[2] = Biodistribution and elimination by optical imaging after intravenous administration; type: in vivo, Balb/c nu/nu mice; conditions: male, Balb/c nu/nu, mouse, in vivo, iv
Experimental: Biodistribution and elimination of the fluorescent agents of the invention was evaluated by optical imaging after intravenous administration in male Balb/c nu/nu mice, 6-10 weeks of age (Charles River Laboratories). Briefly, mice housed 4 per cage and fed with VRF1 (P) sterile diet (Special Diets Services Ltd) up to the end of the acclimation period (5 days). Then, AIN-76a rodent diet irradiated (Research Diets), a special diet that reduces auto-fluorescence, was used up to the end of the experiments. Imaging experiments were performed using the preclinical optical system IVIS Spectrum (Perkin Elmer).
In vivo imaging was performed under gas anesthesia (Sevofluorane 6-8% in oxygen). Animals were intravenously injected with the compounds and imaged longitudinally at 30 min, 1 h, 2 h, 3 h, 4 h, 6 h, and 24 h post-administration. Thus, animals were euthanized by anesthesia overdose, and the main tissues and organs of interest were excised for ex vivo optical imaging. Regions of interest (ROIs) were drawn on the tissues of interest for each fluorescence image at every time point to evaluate signal intensity (expressed as Average adiant Efficiency). The ratio between the fluorescence signal in the muscle (background tissue) and excretory organs (kidney, liver) was then calculated to assess the contrast. The tissue half-life was calculated by fitting the fluorescence signal decay in the muscle with a bi-exponential decay equation model using GraphPad Prism Software (version 5 for Windows).

[3] = tested on: Detroit-562 cells; experiment: Tumor uptake by ex vivo optical imaging, orthotopic human head and neck cancer model; type: in vivo, Balb/c nu/nu mice; conditions: ex vivo tongue, 24 hours after iv 3 nmol/mouse
Experimental: Parallel experiments were performed in an animal model of human head and neck cancer (orthotopic), using Detroit-562 cells, overexpressing in particular integrin receptor αvβ6. Briefly, the human pharyngeal carcinoma cells Detroit-562 (ATCC, CCL-138) were cultured in Eagle's Minimum Essential Medium (EMEM) supplemented with 10% Fetal Bovine Serum (FBS), 2 mM glutamine, 100 IU/mL penicillin, 100 μg/mL streptomycin. Male Balb/c nu/nu mice, 4-6 weeks of age (Charles River Laboratories), underwent orthotopic implantation in the anterior portion of the tongue of about 2.5 million cells suspended in 0.03 mL di EMEM. Mice were housed 4 per cage with food and water ad libitum. Animals were fed with VRF1 (P) sterile diet (Special Diets Services Ltd) up to the end of the acclimation period (5 days). Then, AIN-76a rodent diet irradiated (Research Diets), a special diet that reduces auto-fluorescence, was used up to the end of the experiments. Tumor growth was monitored by longitudinal assessments using a caliper up to the target size of 10-20 mm^3 (7-10 days after cell implantation).
Imaging experiments were performed using the preclinical optical system IVIS Spectrum (Perkin Elmer). Animals were intravenously injected (lateral tail vein) with 3 nmol/mouse, at 24 hours post-administration were euthanized by anesthesia overdose, and the tongues were excised for ex vivo optical imaging. […]

- Kd [1]: 159 µM
Structure (SMILES): CC(CC[N+]1=C(/C=C/C=C/C=C/C=C2/N(CCCCCC(=O)NCCCC[C@@H]3NC(=O)C(Cc4ccccc4)NC(=O)[C@H](CC(=O)O)NC(=O)CNC(=O)[C@H](CCCNC(=N)N)NC3=O)c3ccc(C(=O)NCC(O)C(O)C(O)C(O)CO)cc3C2(C)C)C(C)(C)c2cc(C(=O)NCC(O)C(O)C(O)C(O)CO)ccc21)S(=O)(=O)[O-] (stereo partly drawn) [Compound 1]
- half-life [2]: < 1 h
- Tumor-to-background contrast [3]: high tumor-to-background contrast
